IC50 data for 24 molecules are collected here from patent US9586951B2 (FUJIFILM Corporation, priority 2013, dated 2017).

SMILES strings stand for the structures. Bounds are passed on as bounds.

T1 sequence (Q13315 whole entry): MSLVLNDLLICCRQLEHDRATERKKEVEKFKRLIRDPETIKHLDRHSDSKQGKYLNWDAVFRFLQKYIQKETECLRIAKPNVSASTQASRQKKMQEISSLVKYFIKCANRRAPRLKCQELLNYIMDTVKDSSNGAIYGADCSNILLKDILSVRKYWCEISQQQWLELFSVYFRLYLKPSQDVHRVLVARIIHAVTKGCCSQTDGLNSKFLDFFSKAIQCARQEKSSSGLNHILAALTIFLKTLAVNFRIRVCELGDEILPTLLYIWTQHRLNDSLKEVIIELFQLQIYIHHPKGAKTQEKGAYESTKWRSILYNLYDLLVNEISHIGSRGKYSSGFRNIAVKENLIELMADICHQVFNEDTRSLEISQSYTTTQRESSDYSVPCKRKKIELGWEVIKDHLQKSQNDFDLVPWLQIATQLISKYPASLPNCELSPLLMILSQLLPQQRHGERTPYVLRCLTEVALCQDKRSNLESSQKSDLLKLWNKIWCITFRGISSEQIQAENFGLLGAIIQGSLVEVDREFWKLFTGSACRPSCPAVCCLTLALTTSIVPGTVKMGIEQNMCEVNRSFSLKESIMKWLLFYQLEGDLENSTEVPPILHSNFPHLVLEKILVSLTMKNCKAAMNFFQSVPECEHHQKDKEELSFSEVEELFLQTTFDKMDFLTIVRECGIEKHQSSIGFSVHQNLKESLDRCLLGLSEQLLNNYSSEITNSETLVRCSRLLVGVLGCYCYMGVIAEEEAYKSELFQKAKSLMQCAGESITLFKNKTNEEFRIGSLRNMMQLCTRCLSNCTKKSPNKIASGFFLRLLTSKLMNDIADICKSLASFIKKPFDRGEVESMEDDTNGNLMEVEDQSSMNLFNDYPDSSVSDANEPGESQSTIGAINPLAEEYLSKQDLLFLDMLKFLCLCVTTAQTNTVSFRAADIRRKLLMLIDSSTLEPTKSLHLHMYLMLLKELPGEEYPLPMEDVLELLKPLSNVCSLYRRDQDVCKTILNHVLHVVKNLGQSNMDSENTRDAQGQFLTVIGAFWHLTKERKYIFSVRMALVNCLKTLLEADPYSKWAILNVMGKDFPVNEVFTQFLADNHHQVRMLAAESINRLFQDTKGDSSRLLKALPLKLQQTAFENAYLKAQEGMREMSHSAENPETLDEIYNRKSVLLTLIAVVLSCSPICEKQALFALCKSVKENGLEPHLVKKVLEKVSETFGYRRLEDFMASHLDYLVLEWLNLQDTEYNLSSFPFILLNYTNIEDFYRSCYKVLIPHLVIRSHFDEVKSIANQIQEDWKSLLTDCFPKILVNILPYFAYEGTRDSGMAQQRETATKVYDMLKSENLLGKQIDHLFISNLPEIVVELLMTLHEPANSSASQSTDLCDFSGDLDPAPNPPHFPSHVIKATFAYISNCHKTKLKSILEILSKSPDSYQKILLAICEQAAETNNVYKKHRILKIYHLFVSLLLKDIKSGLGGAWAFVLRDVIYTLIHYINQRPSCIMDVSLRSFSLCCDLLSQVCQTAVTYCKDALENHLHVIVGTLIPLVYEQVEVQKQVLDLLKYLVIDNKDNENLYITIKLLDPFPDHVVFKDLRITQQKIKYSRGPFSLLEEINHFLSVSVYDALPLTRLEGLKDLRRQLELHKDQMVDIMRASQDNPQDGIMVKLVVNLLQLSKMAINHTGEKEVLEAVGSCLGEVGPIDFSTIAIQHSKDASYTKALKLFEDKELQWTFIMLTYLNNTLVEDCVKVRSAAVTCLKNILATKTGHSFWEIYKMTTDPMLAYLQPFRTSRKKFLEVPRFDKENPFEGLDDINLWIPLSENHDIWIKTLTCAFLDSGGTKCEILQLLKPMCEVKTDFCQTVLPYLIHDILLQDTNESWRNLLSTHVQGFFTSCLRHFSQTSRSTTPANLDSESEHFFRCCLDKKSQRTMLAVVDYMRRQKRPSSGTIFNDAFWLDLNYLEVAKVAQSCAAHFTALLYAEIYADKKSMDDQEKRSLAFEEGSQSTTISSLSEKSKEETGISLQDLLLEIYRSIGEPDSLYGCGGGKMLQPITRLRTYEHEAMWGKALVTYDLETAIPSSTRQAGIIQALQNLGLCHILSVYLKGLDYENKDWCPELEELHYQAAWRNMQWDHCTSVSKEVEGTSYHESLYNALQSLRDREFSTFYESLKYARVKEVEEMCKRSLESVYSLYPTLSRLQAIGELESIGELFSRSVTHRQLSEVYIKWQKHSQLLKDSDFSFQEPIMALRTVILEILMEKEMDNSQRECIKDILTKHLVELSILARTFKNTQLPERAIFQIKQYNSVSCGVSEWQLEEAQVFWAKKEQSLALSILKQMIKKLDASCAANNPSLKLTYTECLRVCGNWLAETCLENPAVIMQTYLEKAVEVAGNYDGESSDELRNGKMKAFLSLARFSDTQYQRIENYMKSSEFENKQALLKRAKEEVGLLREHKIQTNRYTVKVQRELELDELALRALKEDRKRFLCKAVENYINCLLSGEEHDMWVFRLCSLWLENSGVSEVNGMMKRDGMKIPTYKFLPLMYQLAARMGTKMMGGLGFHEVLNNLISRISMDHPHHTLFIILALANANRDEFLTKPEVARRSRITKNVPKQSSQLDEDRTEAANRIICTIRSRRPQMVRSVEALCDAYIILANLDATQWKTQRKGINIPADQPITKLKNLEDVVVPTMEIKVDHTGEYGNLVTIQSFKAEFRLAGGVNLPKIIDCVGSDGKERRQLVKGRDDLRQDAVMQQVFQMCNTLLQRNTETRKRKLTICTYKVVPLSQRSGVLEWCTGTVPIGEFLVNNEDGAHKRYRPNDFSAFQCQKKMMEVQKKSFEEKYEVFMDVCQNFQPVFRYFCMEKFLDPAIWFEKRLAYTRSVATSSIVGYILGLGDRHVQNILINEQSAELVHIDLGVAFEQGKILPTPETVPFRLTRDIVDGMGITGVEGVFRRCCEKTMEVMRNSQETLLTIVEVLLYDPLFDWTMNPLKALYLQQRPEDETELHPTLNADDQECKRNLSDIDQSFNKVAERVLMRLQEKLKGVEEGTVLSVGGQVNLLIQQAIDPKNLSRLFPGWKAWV

The assay has as its target T1, ATM (Homo sapiens, UniProt Q13315).
T1 construct: detecting phosphorylation of Chk2 in a human non-small cell lung cancer cell line NCI-H460 (ATCC company); host or cells: NCI-H460 human non-small cell lung cancer cells
Put plainly: ATM inhibition test (phosphorylation of Chk2 generated by ionizing radiation, AlphaScreen SureFire). Type of assay: cell-based. As to conditions: phosphorylated Chk2 in NCI-H460 cells, ionizing radiation 8Gy, 1 hour after test compound treatment; read-out: ATM inhibitory activity. A digest of the protocol: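 NCI-H460 cells, compound 1 h pre-treatment, 8Gy IR, further 1 h at 37° C in 5% CO2. Read-out: phospho-Chk2 via AlphaScreen SureFire. % inhibition relative to IR-induced signal window (irradiated vs non-irradiated drug-free wells).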
On the technique in general: Alpha assays give light when donor and acceptor beads are brought close together.
Turning to `COc1ncc(C(C)Nc2ccc3c(c2)Sc2cccc(-c4cc(N5CCOCC5)cc(=O)[nH]4)c2S3)cn1` (stereo not drawn) [Example 1-12-76], the IC50 lay in the range of 100 to 500 nM.
Next, `O=c1cc(N2CCOCC2)cc(-c2cccc3c2Sc2ccc(NC4CCN(CC(F)(F)F)CC4)cc2S3)[nH]1` [Example 1-25, 4-morpholino-6-(7-((1-(2,2,2-trifluoroethyl)piperidin-4-yl)amino)thianthren-1-yl)pyridin-2(1H)-one]: 100 to 500 nM; `O=c1cc(N2CCOCC2)cc(-c2cccc3c2Oc2ccc(NCc4nccs4)cc2C3)[nH]1` [Example 2-14-31, 4-Morpholino-6-(7-((thiazol-2-ylmethyl)amino)-9H-xanthen-4-yl) pyridin-2(1H)-one]: 100 to 500 nM; `Cc1ccncc1CNc1ccc2c(c1)Sc1cccc(-c3cc(N4CCOCC4)cc(=O)[nH]3)c1O2` [Example 4-4-19, 6-(8-(((4-Methylpyridin-3-yl)methyl)amino)phenoxathiin-4-yl)-4-morpholino pyridin-2(1H)-one]: 100 to 500 nM.
In the case of `Cc1ccc(C(Nc2ccc3c(c2)Sc2cccc(-c4cc(N5CCOCC5)cc(=O)[nH]4)c2S3)[C@@H]2CN(C)CCO2)nc1` (single isomer, unassigned) [Example 1-56-11] it was < 100 nM; in that of `Cc1cccc(C(C)Nc2ccc3c(c2)Cc2cccc(-c4cc(N5CCOCC5)cc(=O)[nH]4)c2O3)n1` (single isomer, unassigned) [Example 2-14-85-1, 6-(7-((1-(6-methylpyridin-2-yl)ethyl)amino)-9H-xanthen-4-yl)-4-morpholinopyridin-2(1H)-one], 100 to 500 nM.
For the molecule `CCCCC(Nc1ccc2c(c1)Sc1cccc(-c3cc(N4CCOCC4)cc(=O)[nH]3)c1S2)[C@H](C)N` (stereo partly drawn) [Example 1-20-3, 6-(7-(((2S)-2-Aminoheptan-3-yl)amino)thianthren-1-yl)-4-morpholino pyridin-2(1H)-one], the IC50 is 100 to 500 nM.
Next, `COCCCN1CCC(Nc2ccc3c(c2)Cc2cccc(-c4cc(N5CCOCC5)cc(=O)[nH]4)c2O3)CC1` [Example 2-30-15, 6-(7-((1-(3-Methoxypropyl)piperidin-4-yl)amino)-9H-xanthen-4-yl)-4-morpholino pyridin-2 (1H)-one]: 500 to 2000 nM.
Next, `O=c1cc(N2CCOCC2)cc(-c2cccc3c2Sc2ccc(NC4CCCN(C5CCOC5)C4)cc2S3)[nH]1` (stereo not drawn) [Example 1-24-8, 4-Morpholino-6-(7-((1-(tetrahydrofuran-3-yl)piperidin-3-yl)amino)thianthren-1-yl)pyridin-2 (1H)-one]: 100 to 500 nM.
In the case of `COCC[C@H](CN1CCOCC1)Nc1ccc2c(c1)Sc1cccc(-c3cc(N4CCOCC4)cc(=O)[nH]3)c1S2` [Example 1-59-1, (R)-6-(7-((4-methoxy-1-morpholinobutan-2-yl)amino)thianthren-1-yl)-4-morpholinopyridin-2(1H)-one] it was < 100 nM; in that of `O=c1cc(N2CCOCC2)cc(-c2cccc3c2Oc2ccc(NCc4cccnc4)cc2CC3)[nH]1` [Example 2-51-2, 4-Morpholino-6-(8-((pyridin-3-ylmethyl)amino)-10,11-dihydrodibenz[b,f]oxepin-4-yl)pyridin-2(1H)-one], 100 to 500 nM.
In the case of `CCC(Nc1ccc2c(c1)Sc1cccc(-c3cc(N4CCOCC4)cc(=O)[nH]3)c1S2)[C@@H](N)CC` (stereo partly drawn) [Example 1-20-6, 6-(7-(((4S)-4-Aminohexan-3-yl)amino)thianthren-1-yl)-4-morpholino pyridin-2(1H)-one], the IC50 is 100 to 500 nM.
`O=c1cc(N2CCOCC2)cc(-c2cccc3c2Sc2ccc(NCCCN4CCOCC4)cc2S3)[nH]1` [Example 1-9-3, 4-Morpholino-6-(7-((3-morpholinopropyl)amino)thianthren-1-yl)pyridin-2(1H)-one]: the IC50 was < 100 nM.
Next, `CC(C)(C)OC(=O)N1CCC(Nc2ccc3c(c2)Cc2cccc(-c4cc(N5CCOCC5)cc(=O)[nH]4)c2O3)CC1` [Example 2-3-12, tert-Butyl 4-((5-(4-morpholino-6-oxo-1,6-dihydropyridin-2-yl)-9H-xanthen-2-yl)amino) piperidine-1-carboxylate]: 100 to 500 nM; `O=c1cc(N2CCOCC2)cc(-c2cccc3c2Oc2ccc(NC4CCN(Cc5cc(C6CC6)ccn5)CC4)cc2C3)[nH]1` [Example 2-28-30, 6-(7-((1-((4-Cyclopropylpyridin-2-yl)methyl)piperidin-4-yl)amino)-9H-xanthen-4-yl)-4-morpholino pyridin-2(1H)-one]: 100 to 500 nM.
Turning to `COc1ccc(CCN2CCC(Nc3ccc4c(c3)Cc3ccc(F)c(-c5cc(N6CCOCC6)cc(=O)[nH]5)c3O4)CC2)cc1` [Example 2-47, 6-(3-Fluoro-7-((1-(4-methoxyphenethyl)piperidin-4-yl)amino)-9H-xanthen-4-yl)-4-morpholinopyridin-2(1H)-one], the IC50 was in the range of 100 to 500 nM.
`Cc1cnc(C(CN(C)C)Nc2ccc3c(c2)Sc2cccc(-c4cc(N5CCOCC5)cc(=O)[nH]4)c2S3)cn1` (stereo not drawn) [Example 1-32, 6-(7-((2-(dimethylamino)-1-(5-methylpyrazin-2-yl)ethyl)amino)thianthren-1-yl)-4-morpholinopyridin-2(1H)-one]: the IC50 lay within 100 to 500 nM.
Turning to `COc1cncc(CNc2ccc3c(c2)Cc2cc(C)cc(-c4cc(N5CCOCC5)cc(=O)[nH]4)c2O3)c1` [Example 2-49-2, 6-(7-(((5-Methoxypyridin-3-yl)methyl)amino)-2-methyl-9H-xanthen-4-yl)-4-morpholinopyridin-2(1H)-one], the IC50 was 100 to 500 nM.
`O=c1cc(N2CCOCC2)cc(-c2cccc3c2Sc2ccc(NCc4ccncc4)cc2C3)[nH]1` [Example 3-8-2, 4-Morpholino-6-(7-((pyridin-4-ylmethyl)amino)-9H-thioxanthen-4-yl)pyridin-2(1H)-one]: the IC50 lay in the range of 500 to 2000 nM.
In the case of `Cc1ccc(CN2CCC(Nc3ccc4c(c3)Cc3cccc(-c5cc(N6CCOCC6)cc(=O)[nH]5)c3O4)CC2)cn1` [Example 2-28-10, 6-(7-((1-((6-Methylpyridin-3-yl)methyl)piperidin-4-yl)amino)-9H-xanthen-4-yl)-4-morpholino pyridin-2(1H)-one] it was 100 to 500 nM; in that of `O=c1cc(N2CCOCC2)cc(-c2cccc3c2Oc2ccc(NC4CCN(Cc5ncccn5)CC4)cc2C3)[nH]1` [Example 2-28-3, 4-Morpholino-6-(7-((1-(pyrimidin-2-ylmethyl)piperidin-4-yl)amino)-9H-xanthen-4-yl)pyridin-2 (1H)-one], 500 to 2000 nM.
In the case of `COc1ncc(CN2CCC(Nc3ccc4c(c3)Cc3cccc(-c5cc(N6CCOCC6)cc(=O)[nH]5)c3O4)CC2)cn1` [Example 2-28-14, 6-(7-((1-((2-Methoxypyrimidin-5-yl)methyl)piperidin-4-yl)amino)-9H-xanthen-4-yl)-4-morpholino pyridin-2(1H)-one] it was 100 to 500 nM; in that of `O=c1cc(N2CCOCC2)cc(-c2cccc3c2Oc2ccc(NC4CCN(CCc5ccccc5Cl)CC4)cc2C3)[nH]1` [Example 2-30-9, 6-(7-((1-(2-Chlorophenethyl)piperidin-4-yl)amino)-9H-xanthen-4-yl)-4-morpholino pyridin-2(1H)-one], 100 to 500 nM.
With `N#Cc1ccc(CNc2ccc3c(c2)Cc2cccc(-c4cc(N5CCOCC5)cc(=O)[nH]4)c2O3)s1` [Example 2-14-32, 6-(7-(((5-Isocycanothiophen-2-yl)methyl)amino)-9H-xanthen-4-yl)-4-morpholino pyridin-2(1H)-one], the IC50 was < 100 nM.
